Type in all cases: cell-based
Assay [1] deals with T1, Protein cereblon/Interleukin-1 receptor-associated kinase 4 (Homo sapiens) (UniProt Q9NWZ3+Q96SW2). Kind of assay: Binding affinity to CRBN/IRAK4 in human PBMC cells assessed as inhibition of LPS-stimulated IL-6 production by measuring maximal efficacy incubated for 24 hrs by MSD analysis relative to control.
Assay [2] deals with T2, Protein cereblon/Interleukin-1 receptor-associated kinase 4 (Homo sapiens, UniProt Q96SW2+Q9NWZ3). Kind of assay: Binding affinity to CRBN/IRAK4 in human PBMC cells assessed as inhibition of LPS-stimulated IL-6 production incubated for 24 hrs by MSD analysis.
T2 sequence (Q9NWZ3 whole entry): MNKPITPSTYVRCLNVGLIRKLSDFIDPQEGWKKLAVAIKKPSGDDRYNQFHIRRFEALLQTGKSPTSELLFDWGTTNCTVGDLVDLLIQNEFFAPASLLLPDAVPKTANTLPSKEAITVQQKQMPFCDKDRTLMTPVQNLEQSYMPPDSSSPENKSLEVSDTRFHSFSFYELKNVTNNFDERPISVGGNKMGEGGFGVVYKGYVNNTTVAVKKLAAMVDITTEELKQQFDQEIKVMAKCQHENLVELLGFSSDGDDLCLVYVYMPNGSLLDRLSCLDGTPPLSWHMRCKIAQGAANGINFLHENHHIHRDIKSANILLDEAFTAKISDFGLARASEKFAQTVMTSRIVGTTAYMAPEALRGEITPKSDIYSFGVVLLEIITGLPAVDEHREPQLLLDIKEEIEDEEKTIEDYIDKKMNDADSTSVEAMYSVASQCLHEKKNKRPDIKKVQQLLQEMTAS
T2 sequence (Q96SW2 whole entry): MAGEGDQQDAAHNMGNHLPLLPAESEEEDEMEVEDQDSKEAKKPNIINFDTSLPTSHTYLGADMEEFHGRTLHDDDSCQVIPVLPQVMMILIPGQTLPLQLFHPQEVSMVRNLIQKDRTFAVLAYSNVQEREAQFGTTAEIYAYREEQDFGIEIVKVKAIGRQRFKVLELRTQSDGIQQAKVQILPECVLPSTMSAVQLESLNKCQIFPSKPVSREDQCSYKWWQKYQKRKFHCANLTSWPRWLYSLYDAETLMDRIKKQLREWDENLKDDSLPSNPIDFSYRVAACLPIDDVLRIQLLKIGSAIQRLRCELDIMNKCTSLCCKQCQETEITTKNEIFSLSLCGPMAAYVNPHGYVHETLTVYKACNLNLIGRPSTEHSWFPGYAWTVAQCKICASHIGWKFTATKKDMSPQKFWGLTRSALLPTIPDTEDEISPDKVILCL
Assay [3] addresses T1, Protein cereblon/Interleukin-1 receptor-associated kinase 4 (Homo sapiens). Kind of assay: Binding affinity to CRBN/IRAK4 in human PBMC cells assessed as inhibition of R848-stimulated IL-6 production by measuring maximal efficacy incubated for 24 hrs by MSD analysis relative to control.
Assay [4] deals with T2, Protein cereblon/Interleukin-1 receptor-associated kinase 4. The experiment in a line: Binding affinity to CRBN/IRAK4 in human PBMC cells assessed as inhibition of R848-stimulated IL-6 production incubated for 24 hrs by MSD analysis.

These results are taken from ChEMBL document CHEMBL5257136, “PROTAC Targeted Degradation of IRAK-4 as Potential Treatment in Cancer” (ACS Med Chem Lett, 2023).

As usually defined, the Emax is the size of the effect at its maximum, as opposed to the concentration needed. As usually defined, the IC50 is the midpoint of a concentration-inhibition curve.

T1 sequence (Q96SW2 whole entry, looked up): as the sequence (Q96SW2 whole entry) above
T1 sequence (Q9NWZ3 whole entry, looked up): as the sequence (Q9NWZ3 whole entry) above

Turning to `O=C1CCC(N2Cc3c(ccc(N4CCC(CN5CCC(n6cc7cc(NC(=O)c8cnn9cccnc89)c(N8CCN(CC(F)F)CC8)cc7n6)CC5)CC4)c3F)C2=O)C(=O)N1` (stereo not given), the Emax was 80% in assay [1] and above 90% in assay [3]. Besides, the IC50 in assay [2] and in assay [4] was below 0.01 µM throughout.
Take `O=C1CCC(N2Cc3ccc(N4CCC(CN5CCC(N6Cc7cc(NC(=O)c8cnn9cccnc89)c(N8CCC(N9CCC9)CC8)cc7C6=O)CC5)CC4)cc3C2=O)C(=O)N1` (stereo not given): the Emax in assay [1] and in assay [3] was above 90% throughout. The IC50 in assay [2] and in assay [4] was below 0.01 µM in each case.
In the case of `O=C1CCC(N2Cc3cc(N4CCC(CN5CCC(N6Cc7cc(NC(=O)c8cnn9cccnc89)c(N8CCC(N9CCC9)CC8)cc7C6=O)CC5)CC4)ccc3C2=O)C(=O)N1` (stereo not given), the Emax in assay [1] and in assay [3] was above 90% in each case. Moreover, the IC50 in assay [2] and in assay [4] was below 0.01 µM in each case.
For the compound `O=C1CCC(N2C(=O)c3ccc(N4CCC(CN5CCC(N6Cc7cc(NC(=O)c8cnn9cccnc89)c(N8CCN(CC(F)F)CC8)cc7C6=O)CC5)CC4)cc3C2=O)C(=O)N1` (stereo not given), the Emax in assay [1] and in assay [3] was 80% throughout. In addition, the IC50 in assay [2] and in assay [4] was at least 0.01 µM in each case.
As for `O=C1CCC(N2Cc3cc(N4CCC(CN5CCC(n6cc7cc(NC(=O)c8cnn9cccnc89)c(OCC(F)F)cc7n6)CC5)CC4)ccc3C2=O)C(=O)N1` (stereo not given), the Emax in assay [1] is 70%; in assay [3], above 90%. Further, the IC50 in assay [2] was at least 0.01 µM; in assay [4] it was below 0.01 µM.
Consider `O=C1CCC(N2Cc3ccc(N4CC(F)(CN5CCC(N6Cc7cc(NC(=O)c8cnn9cccnc89)c(N8CCC(N9CCC9)CC8)cc7C6=O)CC5)C4)cc3C2=O)C(=O)N1` (stereo not given), for which the Emax is 80% in assay [1] and above 90% in assay [3]. For the same compound, the IC50 in assay [2] and in assay [4] was below 0.01 µM each time.
Regarding `CC(C)Oc1cc2c(cc1NC(=O)c1cnn3cccnc13)CN(C1CCN(C(C)(C)C3CN(c4ccc5c(c4)C(=O)N(C4CCC(=O)NC4=O)C5=O)C3)CC1)C2=O` (stereo not given), the Emax in assay [1] and in assay [3] was above 90% in each case. Also, the IC50 in assay [2] and in assay [4] was at least 0.01 µM throughout.
With `CC(C)Oc1cc2c(cc1NC(=O)c1cnn3cccnc13)CN(C1CCN(CC3(F)CN(c4ccc5c(c4F)CN(C4CCC(=O)NC4=O)C5=O)C3)CC1)C2=O` (stereo not given), the Emax in assay [1] and in assay [3] was above 90% in each case. Moreover, the figures for the IC50 in assay [2] and in assay [4] were at least 0.01 µM and at least 0.05 µM, respectively.
For `CC(C)Oc1cc2c(cc1NC(=O)c1cnn3cccnc13)CN(C1CCN(CC3CCN(c4ccc5c(c4)C(=O)N(C4CCC(=O)NC4=O)C5=O)CC3)CC1)C2=O` (stereo not given), the figures for the Emax in assay [1] and in assay [3] were 80% and above 90%, respectively. The IC50 in assay [2] and in assay [4] was below 0.01 µM throughout.
As to `O=C1CCC(N2Cc3ccc(N4CCC(CN5CCC(n6cc7cc(NC(=O)c8cnn9cccnc89)c(OCC8CC8)cc7n6)CC5)CC4)cc3C2=O)C(=O)N1` (stereo not given), the Emax in assay [1] was 80%; in assay [3], above 90%. Further, the 50% inhibitory concentration (IC50) in assay [2] and in assay [4] was below 0.01 µM in each case.
